Test results reported in patent US10213451B2, “Methods and compounds for modulating the secretion or expression of adhesion proteins or angiopoietins of cells” (PACIFIC ARROW LIMITED, priority 2004, dated 2019).
Values after ≈ are worked out from the molar mass of the structure shown.

Legend:
human red blood cells = assay: Hemolytic activity; assay type: cell-based; details: FIG. 3D
Experimental: (§1) Methods: • Human whole blood was obtained from the Houston Gulf Coast Blood Center. • Red blood cells were isolated by the following method: Human blood (in EDTA) was diluted 1:1 with PBS, underlay with 4 mL of Histopaque-1077 (SIGMA) and was centrifuged at 400 g for 30 min. • Red blood cells (RBC) were collected and washed three times with PBS. • 10% suspensions of RBC were prepared with PBS before use. • 50 μL of RBC suspension was added to 2 mL of saponins with different concentration. • The suspension was mixed by vortexing then left to sit at room temperature for 60 minutes. • The suspension was centrifuged at 3000 rpm for 5 min. Absorbance of the supernatant was measured at 540 nm.

[1] = test system: Hey8A cells attached to flasks; assay: Inhibition of cell adhesion to flasks, Hey8A; assay type: cell-based, human; details: 5 ug/ml, 5 hours
Experimental: (§2) Methods and Results. ES2 or Hey8A cells were plated in T25 flasks with medium containing 5 ug/ml of Xanifolia-Y. Cultures were incubated for 5 hours. Attached cells were removed from flasks by trypsinization and the amounts were counted. Compare to no drug controls, 86±4% of ES2 cells and 67±8% of Hey8A cells were found attached to flasks under this condition. At 5 ug/ml Xanifolia-Y, over 90% of unattached cells are alive as determined by the trypan Blue exclusion assay and by their ability to re-attach to flasks when plating in medium without Xanifolia-Y. However, with 10 ug/ml Xanifolia-Y, less than 40% of cells attached to flasks and many of them are dead cells.
as §2, with “Results:” for “Results.”

[2] = test system: red blood cells (hemolysis); assay: Hemolytic activity; assay type: cell-based, human; details: human red blood cells (isolated from whole blood); human red blood cells, FIG. 5A
Experimental: as §1

[3] = test system: Hey8A cells inoculated into peritoneal cavity; assay: Nodule formation in peritoneal cavity, Hey8A; assay type: in vivo, nu/nu mice; details: 0.25 mg/kg i.p. daily 5 days per week for two-three weeks
From the text: (§3) The relationship between the nodule formation and timelines during tumor progression are established. Usually, 4 to 6 nodules are formed during the entire period of tumor progression in this system (Lander Jr., et al., 2005). We start the drug-treatment at times equivalent to 20% and 50% of full tumor progression. At these times, the number of nodule is less and the size (weight) of the nodules is smaller. At the end of the drug-treatment, animals are euthanized and number of tumor nodules is determined and the tumor size (mass) is weighted.
(§4) Animals: 40 nu/nu mice are used per experiment.
(§5) 2 groups of mice (20 each) (i) Drug-treatment start at time equivalent to 20% of full tumor progression (or on 4 days after tumor inoculation) (ii) Drug-treatment starts at time equivalent to 50% of full tumor progression (or on 10 days after tumor inoculation). On the day of starting drug-treatment, half of the animals (10) will be scarified and the number and weight of nodules will measured.
(§6) Drug-Treatments: Animals are administered daily for 5 days per week for two—three weeks. Dose: 0.25 mg/kg, through i.p. route.

[4] = test system: ES2 cells inoculated into peritoneal cavity; assay: Nodule formation in peritoneal cavity, ES2; assay type: in vivo, nu/nu mice; details: ES2, 0.25 mg/kg i.p. daily 5 days per week for two-three weeks
From the text: as §3, §4, §5, §6

[5] = test system: swelling of rats' feet induced by Carrageenin; assay: Carrageenin-induced swollen feet model; assay type: in vivo, SD rats;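 further: percent increase in foot volume over pre-inflammation volume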
Experimental: SD rats, male, weighing 163±18 g were used in the experiment. The tested animals are allowed to acclimate for a week. The rats drink water freely. The rats were randomly divided into 5 groups: control, positive control and 3 test groups, and each group had 8 rats. The dose for 3 groups of rats are 10, 20 and 40 mg/kg. Indometacin for the positive control is 10 mg/kg and fed once after modeling. The dose of CMC-Na for the control group is the same as each test group and fed into the stomach once a day before modeling for 5 days. The tested drug was fed into the stomach 10 minutes before the animal modeling (1 mL/100 g). The volumes of right foot of each rat were measured 0.5, 1, 2 and 4 hours before and after modeling. The volumes of the right hind feet were measured at a different time, 10 minutes after inflammation induced by subcutaneous injection (with syringe needle 7) of 0.05 mL of the 1% of Carrageenin/normal saline mixture into the feet. The Rate of swelling of the feet was calculated, compared with the controls and subject to a student t-test. Rate of swelling (E) (%)=Ltn−Lt0/Lt0×100% • Ltn: volume of foot after the inflammation • Lt0: volume of foot before the inflammation

Hey 8A = assay: MTT assay Hey 8A; assay type: cell-based, human
Experimental: Majority of ovarian cancers arise from the surface epithelium of ovary, most of them belong to the histological subtypes of clear cell and serous carcinoma. We obtained 10 more human ovarian carcinoma cell-lines of these histological subtypes for these studies. The inhibition activity exerted by Xanifolia-Y was determined with MTT assay.
Cells: Hey8A (human ovarian carcinoma cells) were grew in RPMI 1640 medium to 90% confluent before drug-treatment. Drug-treatment: Cells cultures were replaced with fresh RPMI medium containing either DMSO (as control) [D1]; or Xanifolia-Y (10, 15, or 20 ug/ml) [Y1, Y2 and Y3]. Aliquot of medium was removed as 0 hours sample and no FN was detected at this time. After 24 hours, aliquot of culture medium was taken out for Fibronectin determination (Western blot method). Cell viability at 24 hours was determined by MTT assay. Cultures were replaced with RPMI medium (5 ml) with MTT and incubated for an hour. The formation of formazan was dissolved in DMSO and OD at 570 nm was measured.

## C/C=C(/C)C(=O)O[C@H]1[C@H](OC(=O)/C(C)=C\C)[C@@]2(CO)C(CC1(C)C)C1=CCC3[C@@]4(C)CC[C@H](O)C(C)(C)C4CC[C@@]3(C)[C@]1(C)[C@@H](O)[C@H]2O (stereo partly shown) [ACH-Y]
Human red blood cells
  hemolytic activity of hydrolysed products of compound Y: reduced hemolytic activity

## C/C=C(/C)C(=O)O[C@H]1[C@H](OC(=O)/C(C)=C\C)[C@@]2(CO)C(CC1(C)C)C1=CCC3[C@@]4(C)CC[C@H](O[C@@H]5OC(C(=O)O)[C@@H](O)C(O[C@@H]6O[C@@H](CO)C(O)C6O)C5O[C@@H]5OC(CO)[C@H](O)C(O)C5O)C(C)(C)C4CC[C@@]3(C)[C@]1(C)[C@@H](O)[C@H]2O (stereo partly drawn) [Xanifolia-Y, 3-O-[β-D-galactopyranosyl (1→2)]-α-L-arabinofuranosy (1→3)-β-D-glucuronopyranosyl-21,22-O-diangeloyl-3β, 15α, 16α, 21β, 22α, 28-hexahydroxyolean-12-ene]
[1]
  cells attached to flasks, compared to no drug controls: 67±8%
[2]
  IC50 at 60 min: 1 µg/mL (≈ 0.876 µM)
[3]
  numbers of tumor nodules: less
  size of tumor: smaller
[4]
  numbers of tumor nodules: less
  size of tumor: smaller
[5]; 10 mg/kg, 0.5 hour
  Swelling rate after administration (%): 16.7%
[5]; 10 mg/kg, 1 hour
  Swelling rate after administration (%): 18.5%
[5]; 10 mg/kg, 2 hours
  Swelling rate after administration (%): 16.0%
[5]; 10 mg/kg, 4 hours
  Swelling rate after administration (%): 10.5%
[5]; 20 mg/kg, 0.5 hour
  Swelling rate after administration (%): 10.5%
[5]; 20 mg/kg, 1 hour
  Swelling rate after administration (%): 13.6%
[5]; 20 mg/kg, 2 hours
  Swelling rate after administration (%): 12.4%
[5]; 20 mg/kg, 4 hours
  Swelling rate after administration (%): 8.5%
[5]; 40 mg/kg, 0.5 hour
  Swelling rate after administration (%): 10.3%
[5]; 40 mg/kg, 1 hour
  Swelling rate after administration (%): 12.6%
[5]; 40 mg/kg, 2 hours
  Swelling rate after administration (%): 12.5%
[5]; 40 mg/kg, 4 hours
  Swelling rate after administration (%): 6.5%
Hey 8A; Hey8A, 15 ug/ml and 20 ug/ml, 24 hours
  state of cells after drug-treatment: found dead (floating)
Hey 8A; Homo sapiens, Hey8A, 10 ug/ml, 24 hours, read-out: growth of cells, % of control (MTT)
  activity at 10 µg/mL: 83%
Hey 8A; Homo sapiens, Hey 8A, Serous
  IC50: 10.5 µM
